The values that follow come from US4883821A, “Agent for treating hyperuricemia” (Eisai Co., Ltd., priority 1988, dated 1989).

Where “and” joins values, the source holds several entries; their conditions need not be identical. Equal values may be shown once.

For data set [1] the following is noted: clinical use, prior art; cited from earlier work.
The subject of another data set is uric acid level in serum. Briefly: phase I clinical test: uric acid level in serum of healthy adult men (enzymatic method). It is filed as in vivo. On the procedure: Capsules containing 300 mg of the compound of the present invention, N-{3-[4"-(2",6"-dimethylheptyl)phenyl]butanoyl}ethanolamine, were administered to 5 healthy adult men for 7 days three times per day after meals. For comparison, a placebo was administered to two other healthy adult men. Thus, the phase I clinical test was conducted.
[…] With respect to the measured values, the significance test was conducted between the group to which the compound of the present invention was administered and the group to which the placebo was administered.
In the above table, each value indicates the uric acid level (mg/dl) in serum, and A through G in the column of "Healthy man" represent the adult men to whom the medicine was administered.

A short description of data set [2]: acute toxicity test in rats. In kind it is in vivo. As to conditions: rat, in vivo. The method, then: (§1) The acute toxicity test was carried out by oral, intraperitoneal and subcutaneous administration to 7- to 8-week old Sic-SD rats and Slc:ICr mice. The case of death was observed within 5 days from the start of the administration.
The test system of another data set is Sic-SD rats. Nature of the data set: acute toxicity test in rats. It is filed as in vivo. As to conditions: oral, intraperitoneal and subcutaneous. On the procedure: as §1
A short description of data set [3]: acute toxicity test in mice. As to conditions: mouse, in vivo. The method, then:
as §1

For data set [4] the following is noted: disclosed in Japanese Patent Laid-Open No. 210050/1986; cited from earlier work.

As for `Oc1ncnc2[nH]ncc12` [allopurinol], the adverse effects result in data set [1] was “causes efflorescence, gastrointestinal disorders, liver troubles and hematogenic organ troubles”.
By LD50 is commonly meant the dose at which mortality reaches 50%. With `CC(C)CCCC(C)Cc1ccc(C(C)CC(=O)NCCO)cc1` (stereo not drawn) [compound of the present invention, N-{3-[4'-(2",6"-dimethylheptyl)phenyl]butanoyl}ethanolamine], in the data set with uric acid level in serum (after stop of administration), the “accumulation of the medicinal effect” value is recorded as “not observed”. Besides, the “uric acid level in serum when administration was stopped” value in the data set on uric acid level in serum (after stop of administration) is given as “promptly elevated to the value before the start of the administration”. For the same compound, in the data set with uric acid level in serum (average of men A-E, 1st day, before administration, placebo average 6.0), the “average uric acid level in serum, 1st day” value turned out to be 5.8 mg/dL. Further, in the data set on uric acid level in serum (average of men A-E, 4th day, 300 mg three times per day, marked *, placebo average 5.7), the “average uric acid level in serum, 4th day” value was 3.1 mg/dL. Besides, in the data set with uric acid level in serum (average of men A-E, 6th day, 300 mg three times per day, marked *, placebo average 5.7), the “average uric acid level in serum, 6th day” value stood at 2.7 mg/dL. For the same compound, the “average uric acid level in serum, 8th day” value with uric acid level in serum (average of men A-E, 8th day, 300 mg three times per day for 7 days, marked *, placebo average 5.8) stood at 3.2 mg/dL. Besides, in the data set on uric acid level in serum (average of men A-E, 11th day, after 7 days of administration, placebo average 7.1), the “average uric acid level in serum, 11th day” value is 5.5 mg/dL. Moreover, in the data set with uric acid level in serum (fourth day), the “lowering in the uric acid level in serum” value is given as “significant lowering in the uric acid level in serum was observed”. For the same compound, in the data set with uric acid level in serum (individual healthy men A-E (one per line), 1st day, before administration, 300 mg capsules three times per day after meals, 7 days, listed as compound of present invention), the “uric acid level in serum, 1st day” value is 4.9 mg/dL and 6.4 mg/dL and 5.9 mg/dL and 7.0 mg/dL and 4.7 mg/dL. For the same compound, in the data set with uric acid level in serum (individual healthy men A-E (one per line), 4th day, 300 mg capsules three times per day after meals, 7 days, listed as compound of present invention), the “uric acid level in serum, 4th day” value was 8.5 mg/dL and 2.9 mg/dL and 2.6 mg/dL and 3.6 mg/dL and 2.8 mg/dL. Further, the “uric acid level in serum, 6th day” value in the data set with uric acid level in serum (individual healthy men A-E (one per line), 6th day, 300 mg capsules three times per day after meals, 7 days, listed as compound of present invention) was 3.0 mg/dL and 2.6 mg/dL and 2.4 mg/dL and 3.2 mg/dL and 2.5 mg/dL. Moreover, the “uric acid level in serum, 8th day” value with uric acid level in serum (individual healthy men A-E (one per line), 8th day, 300 mg capsules three times per day after meals, 7 days, listed as compound of present invention) is 3.2 mg/dL and 3.1 mg/dL and 4.0 mg/dL and 2.7 mg/dL. Besides, in the data set on uric acid level in serum (individual healthy men A-E (one per line), 11th day, after 7 days of 300 mg capsules three times per day after meals, listed as compound of present invention), the “uric acid level in serum, 11th day” value was 4.8 mg/dL and 5.6 mg/dL and 7.2 mg/dL and 5.3 mg/dL. Also, the LD50 in data set [2] (ip, female, intraperitoneal) is 572 mg/kg; in data set [2] (ip, male, intraperitoneal), 1340 mg/kg; in data set [2] (po, female) it was 1910 mg/kg; in data set [2] (po, male), 4260 mg/kg; in data set [2] (sc, female, subcutaneous) it was 6350 mg/kg; in data set [2] (sc, male, subcutaneous), over 8000 mg/kg. Moreover, the LD50 in data set [3] (ip, female, intraperitoneal) is 737 mg/kg; in data set [3] (ip, male, intraperitoneal) it was 792 mg/kg; in data set [3] (po, female), 4580 mg/kg; in data set [3] (po, male) it was over 2560 mg/kg; in data set [3] (sc, female, subcutaneous), over 5000 mg/kg; in data set [3] (sc, male, subcutaneous), over 5000 mg/kg. For the same compound, the “time of death from the start of the administration” value with Sic-SD rats is reported as at most 5 days. The anticholesterolemic action result in data set [4] is reported as “has an anticholesterolemic action”. For the same compound, the “solubility in organic solvents” value in “solubility” (anhydrous ethanol, ethyl acetate, ethanol, chloroform, acetonitrile and n-hexane) is listed as “Highly soluble”. Besides, the solubility in water result in “solubility” (water) is listed as “substantially insoluble”.
